Where a name gives a salt, the structure may show the parent alone. Read-outs that look alike come from different tables or passages of the source.
Tests used:
cytotoxic T lymphocytes [1] = format: in vivo, C57BL/6 mice; settings: splenocytes eight days after i.v. LCMV-WE; EL4 cells sensitized with GP33-41 or NP peptide
[2] = molecular target: T1, 20S proteasomes isolated from murine B8 fibroblasts (Mus musculus, UniProt O55234+P70195+Q60692); test: Hydrolysis of fluorogenic substrates by isolated 20S proteasomes; format: biochemical; settings: for "chimotrypsin-like" activity (hydrolysis of Suc-LLVY-MCA), comparison of four HIV-1 protease inhibitors: different batch of purified proteasomes, increasing concentrations
T1 construct: 20S proteasomes isolated from murine B8 fibroblasts; endogenous in cells; host or cells: murine B8 fibroblasts; 20S proteasome purified from the cells
Method: FIGS. 4B, 4C and 4D show the hydrolysis of the fluorogenic substrate (100 μM Suc-LLVY-MCA, 100 μM (Z)-GGL-MCA and 400 μM Bz-VGR-MCA) of the 20S proteasomes isolated from murine B8 fibroblasts, as a function of variable concentrations of ritonavir and of LLnL (N-acetyl-L-leucinyl-L-leucinal-L-norleucinal, known inhibitor of the proteasome). The results are reported for one hour of digestion with the 20S proteasome (500 ng) in a final volume of 100 μl. The values were located in a linear detection domain and are the mean values of triplicates with standard errors of less than 3%.
The hydrolysis of Suc-LLVY-MCA by the 20S murine proteasomes was tested according to the method described in Example 4.2. under identical conditions except for the fact that a different batch of purified proteasomes was used. The hydrolysis of Suc-LLVY-MCA was measured in the presence of increasing concentrations of ritonavir, nelfinavir (Roche), saquinavir (mesylate) and indinavir (active ingredient of Crixivan® marketed by Merck and Sharp and Dohme). The HIV protease inhibitors were dissolved beforehand in ethanol, methanol, DMSO and water respectively, for use in vitro (FIG. 4E).

cytotoxic T lymphocytes [3] = format: in vivo, C57BL/6 mice; settings: for swelling of the footpad after injection of LCMV: mice infected in the footpad with LCMV-WE, swelling after seven to eight days
[4] = patients with hepatic cytolysis (cytolysis +)
[5] = patients without hepatic cytolysis (cytolysis −)
[6] = 100 μM substrate, one hour digestion, 500 ng 20S proteasome

## CC(C)(C)NC(=O)[C@@H]1CN(Cc2cccnc2)CCN1C[C@@H](O)C[C@@H](Cc1ccccc1)C(=O)N[C@H]1c2ccccc2C[C@H]1O [indinavir]
Cytotoxic T lymphocytes [1]
  lysis of the target cells (direct lysis ex vivo after systemic infection): not inhibited
HCV; during the therapy
  anti-HCV antibody titre: No increase
HCV; patients coinfected with HCV and HIV
  patients in whom the ALAT concentrations increased: 10%
HCV; [4]
  Ac index (variation of anti-HCV antibody titre, ratio of the optical densities): 0.98
  variation of CD4: 29.5 cells /mm^3
  variation of CD8: 203.5 cells /mm^3
  variation of HCV-VL (viral HCV load): 2.25 log10 of copies of RNA/ml
HCV; [5]
  Ac index (variation of anti-HCV antibody titre, ratio of the optical densities): 1.01(+/−0.13)
  variation of CD4: 21.1(+/−68) cells /mm^3
  variation of CD8: 9.2(+/−222) cells /mm^3
  variation of HCV-VL (viral HCV load): +0.41 log10 of copies of RNA/ml
HCV; patients without hepatic cytolysis (cytolysis −), listed as IDN
  variation of HCV-VL (viral HCV load): 0.41(+/−0.79) log10 of copies of RNA/ml
[2]
  "chimotrypsin-like" activity (hydrolysis of Suc-LLVY-MCA), comparison of four HIV-1 protease inhibitors: no inhibition
Cytotoxic T lymphocytes [3]
  swelling of the footpad after injection of LCMV: not inhibited

## Cc1c(O)cccc1C(=O)N[C@@H](CSc1ccccc1)[C@H](O)CN1C[C@H]2CCCC[C@H]2C[C@H]1C(=O)NC(C)(C)C [nelfinavir]
Cytotoxic T lymphocytes [1]
  lysis of the target cells (direct lysis ex vivo after systemic infection): not inhibited
[2]
  "chimotrypsin-like" activity (hydrolysis of Suc-LLVY-MCA), comparison of four HIV-1 protease inhibitors: no inhibition
Cytotoxic T lymphocytes [3]
  swelling of the footpad after injection of LCMV: not inhibited

## CC(C)(C)NC(=O)[C@@H]1C[C@@H]2CCCC[C@@H]2CN1C[C@@H](O)[C@H](Cc1ccccc1)NC(=O)[C@H](CC(N)=O)NC(=O)c1ccc2ccccc2n1 [saquinavir mesylate]
[2]
  "chimotrypsin-like" activity (hydrolysis of Suc-LLVY-MCA), comparison of four HIV-1 protease inhibitors: inhibits

## CC(C)(C)NC(=O)[C@@H]1C[C@@H]2CCCC[C@@H]2CN1C[C@@H](O)[C@H](Cc1ccccc1)NC(=O)[C@H](CC(N)=O)NC(=O)c1ccc2ccccc2n1 [saquinavir]
[2]; summary statement
  "chymotrypsin-like" activity of the proteasome: inhibited
  "trypsin" activity of the proteasome: increased
Cytotoxic T lymphocytes [3]; 7th day after the treatment, oral dose of 4 mg per day
  inhibition of the swelling of the footpads: up to 73%

## N-acetyl-L-leucinyl-L-leucinal-L-norleucinal [LLnL]
[2]; [6]
  hydrolysis of the fluorogenic substrate Suc-LLVY-MCA: inhibits in a similar manner
  hydrolysis of the substrate (Z)-GGL-MCA: inhibits in a similar manner
[2]; 400 μM substrate, one hour digestion, 500 ng 20S proteasome
  cleavage of the substrate Bz-VGR-MCA ("trypsin" type activity): inhibits in a similar manner
